# Patent US20240409585A1, “MACROCYCLIC IMMUNOMODULATORS” (priority 2021, published 2024)
# Numbered stars: 1 amine (or outer) side, 2 acyl side, 3 side chain; on linkers, the order of the positions; unused ones are H or OH. Bridge positions count the residues as written; N and C are the ends. Square brackets hold non-standard residues; d marks the D form. Peptide text beside a SMILES is read from it. * marks the point of attachment. ξ: configuration not given here. Phe(3-OCH2COOH) = N[C@@H](Cc1cccc(OCC(=O)O)c1)C(=O)O; Phe(3-CF3) = N[C@@H](Cc1cccc(C(F)(F)F)c1)C(=O)O; Phe(4-COOH) = N[C@@H](Cc1ccc(C(=O)O)cc1)C(=O)O; X27 = O=C([C@H](Cc1ccc2ncccc2c1)N[*:1])[*:2]; Bip = N[C@@H](Cc1ccc(-c2ccccc2)cc1)C(=O)O; Phe(3-Me) = Cc1cccc(C[C@H](N)C(=O)O)c1; Val(3-OH) = CC(C)(O)[C@H](N)C(=O)O; Cha = N[C@@H](CC1CCCCC1)C(=O)O; Cit = NC(=O)NCCC[C@H](N)C(=O)O; Ile(3ξ) = CCC(C)[C@H](N)C(=O)O; Thr(3ξ) = CC(O)[C@H](N)C(=O)O; Carboxymethyl = O=C(O)C*; NMeA = CN[C@@H](C)C(=O)O; Dab = NCC[C@H](N)C(=O)O; Dap = NC[C@H](N)C(=O)O
# Biological target: T1, PE-labeled human PD-L1-Ig binding to Jurkat cell line over-expressing human PD-1 (Jurkat-PD-1) (Homo sapiens, UniProt Q15116)
# T1 construct: expressed in transfected cells; host or cells: Jurkat
# Assay: Jurkat-PD-1 Cell Binding High-Content Screening Assay (CBA): Method 1
# Conditions: Jurkat-hPD-1 cells, PE-labeled PD-L1-Ig 20 nM final; read-out: Jurkat HPDL1 PD1 IC50 (uM) (Method 1)
# T1 sequence (Q15116 25-288): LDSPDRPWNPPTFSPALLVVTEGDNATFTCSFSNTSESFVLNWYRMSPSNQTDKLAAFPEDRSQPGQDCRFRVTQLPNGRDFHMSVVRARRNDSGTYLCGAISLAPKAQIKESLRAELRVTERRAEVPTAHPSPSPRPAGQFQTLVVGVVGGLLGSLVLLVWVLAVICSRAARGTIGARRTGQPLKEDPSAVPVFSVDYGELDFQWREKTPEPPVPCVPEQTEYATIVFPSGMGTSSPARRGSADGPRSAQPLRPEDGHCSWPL
row,SMILES,IC50 [µM]
1,CC(C)C[C@@H]1NC(=O)[C@H](CCCCN)NC(=O)[C@@H](CC(C)C)NC(=O)[C@H](C)N(C)C(=O)[C@H](Cc2cnc[nH]2)NC(=O)[C@H](Cc2ccc(-c3ccccc3)cc2)NC(=O)[C@H](C(C)C)NC(=O)[C@H](Cc2c[nH]c3ccccc23)NC(=O)[C@H](CC(=O)O)NC(=O)[C@H](Cc2ccc(O)cc2)NC(=O)[C@H](CC(N)=O)NC(=O)CSC[C@@H](C(=O)NCC(N)=O)NC(=O)[C@H](CO)NC(=O)[C@H](C(C)C)NC1=O [Compound 1483] ({CH2CO}-NYDWV[Bip]H[NMeA][dL]KLVSCG-NH2; thioether N-14),0.06
2,CC(C)C[C@@H]1NC(=O)[C@H](Cc2c[nH]c3ccccc23)NC(=O)[C@H](CC(=O)O)NC(=O)[C@H](Cc2cccc(C(F)(F)F)c2)NC(=O)[C@H](Cc2ccccc2)NC(=O)CSC[C@@H](C(=O)N[C@@H](C)C(N)=O)NC(=O)[C@H](CO)NC(=O)[C@H](C(C)C)NC(=O)[C@H](CC(C)C)NC(=O)[C@H](CC(N)=O)NC(=O)[C@@H](C)NC(=O)[C@H](C)N(C)C(=O)[C@H](C(C)C)NC(=O)[C@H](Cc2ccc(-c3ccccc3)cc2)NC1=O [Compound 1777] ({CH2CO}-F[Phe(3-CF3)]DWL[Bip]V[NMeA][dA]NLVSCA-NH2; thioether N-14),0.06
3,CC[C@H](C)[C@@H]1NC(=O)[C@H](Cc2ccc(-c3ccccc3)cc2)NC(=O)[C@H](C(C)C)NC(=O)[C@H](Cc2cccc(C)c2)NC(=O)[C@H](CC(=O)O)NC(=O)[C@H](Cc2ccc(O)cc2)NC(=O)[C@H](CC(N)=O)NC(=O)CSC[C@@H](C(=O)N[C@@H](CCN)C(N)=O)NC(=O)[C@H]([C@@H](C)O)NC(=O)[C@H](C(C)(C)O)NC(=O)[C@H](CC(C)C)NC(=O)[C@H](CCN)NC(=O)[C@@H](CC(C)C)NC(=O)[C@H](C)N(C)C1=O [Compound 1684] ({CH2CO}-NYD[Phe(3-Me)]V[Bip]I[NMeA][dL][Dab]L[Val(3-OH)]TC[Dab]-NH2; thioether N-14),0.01
4,CC(C)C[C@@H]1NC(=O)[C@H](Cc2c[nH]c3ccccc23)NC(=O)[C@H](CC(=O)O)NC(=O)[C@H](Cc2ccc(O)cc2)NC(=O)[C@H](Cc2ccccc2)NC(=O)CSC[C@@H](C(=O)N[C@@H](C)C(N)=O)NC(=O)[C@H](CO)NC(=O)[C@H](C(C)C)NC(=O)[C@H](CC(C)C)NC(=O)[C@H](CC(N)=O)NC(=O)[C@@H](Cc2ccccc2)NC(=O)[C@H](C)N(C)C(=O)[C@H](C(C)C)NC(=O)[C@H](Cc2ccc(-c3ccccc3)cc2)NC1=O [Compound 1783] ({CH2CO}-FYDWL[Bip]V[NMeA][dF]NLVSCA-NH2; thioether N-14),0.09
5,CC(C)C[C@@H]1NC(=O)[C@H](Cc2c[nH]c3ccccc23)NC(=O)[C@H](CC(=O)O)NC(=O)[C@H](Cc2ccc(O)cc2)NC(=O)[C@H](Cc2ccccc2)NC(=O)CSC[C@@H](C(=O)N[C@@H](C)C(N)=O)NC(=O)[C@H](C(C)O)NC(=O)[C@H](CCN)NC(=O)[C@H](CC(C)C)NC(=O)[C@H](CC(N)=O)NC(=O)[C@@H](C)NC(=O)[C@H](C)N(C)C(=O)[C@H](C(C)C)NC(=O)[C@H](Cc2ccc(-c3ccccc3)cc2)NC1=O (stereo partly drawn) [Compound 1534] ({CH2CO}-FYDWL[Bip]V[NMeA][dA]NL[Dab][Thr(3ξ)]CA-NH2; thioether N-14),0.49
6,CC(C)C[C@@H]1NC(=O)[C@H](CCN)NC(=O)[C@@H](CC(C)C)NC(=O)[C@H](C)N(C)C(=O)[C@H](CCCNC(N)=O)NC(=O)[C@H](Cc2ccc(-c3ccccc3)cc2)NC(=O)[C@H](C(C)C)NC(=O)[C@H](Cc2c[nH]c3ccccc23)NC(=O)[C@H](CC(=O)O)NC(=O)[C@H](Cc2ccc(O)cc2)NC(=O)[C@H](Cc2ccc3ncccc3c2)NC(=O)CSC[C@@H](C(=O)N[C@@H](C)C(N)=O)NC(=O)[C@H](C(C)O)NC(=O)[C@H](C(C)C)NC1=O (stereo partly drawn) [Compound 2036] ({CH2CO}-[X27]YDWV[Bip][Cit][NMeA][dL][Dab]LV[Thr(3ξ)]CA-NH2; thioether N-14),0.04
7,Cc1cccc(C[C@@H]2NC(=O)[C@H](CC(=O)O)NC(=O)[C@H](Cc3ccc(O)cc3)NC(=O)[C@H](CC(N)=O)NC(=O)CSC[C@@H](C(=O)N[C@H](C)C(N)=O)NC(=O)[C@H](CCC(=O)O)NC(=O)[C@H](C(C)(C)O)NC(=O)[C@H](CC3CCCCC3)NC(=O)[C@H](CCN)NC(=O)[C@@H](CC(C)C)NC(=O)[C@H](C)N(C)C(=O)[C@H](CCCNC(N)=O)NC(=O)[C@H](Cc3ccc(-c4ccccc4)cc3)NC(=O)[C@H](C(C)(C)O)NC2=O)c1 [Compound 1712] ({CH2CO}-NYD[Phe(3-Me)][Val(3-OH)][Bip][Cit][NMeA][dL][Dab][Cha][Val(3-OH)]EC[dA]-NH2; thioether N-14),0.24
8,Cc1cccc(C[C@@H]2NC(=O)[C@H](CC(=O)O)NC(=O)[C@H](Cc3ccc(O)cc3)NC(=O)[C@H](CC(N)=O)NC(=O)CSC[C@@H](C(=O)N[C@@H](C)C(N)=O)NC(=O)[C@H]([C@@H](C)O)NC(=O)[C@H](C(C)C)NC(=O)[C@H](CC(C)C)NC(=O)[C@H](CCCNC(=N)N)NC(=O)[C@@H](CC(C)C)NC(=O)[C@H](C)N(C)C(=O)[C@H](C(C)C)NC(=O)[C@H](Cc3ccc(-c4ccccc4)cc3)NC(=O)[C@H](C(C)C)NC2=O)c1 [Compound 1273] ({CH2CO}-NYD[Phe(3-Me)]V[Bip]V[NMeA][dL]RLVTCA-NH2; thioether N-14),0.01
9,CC(C)C[C@@H]1NC(=O)[C@H](CCN)NC(=O)[C@@H](CC(C)C)NC(=O)[C@H](C)N(C)C(=O)[C@H](CCCNC(=N)N)NC(=O)[C@H](Cc2ccc(-c3ccccc3)cc2)NC(=O)[C@H](C(C)C)NC(=O)[C@H](Cc2c[nH]c3ccccc23)NC(=O)[C@H](CC(=O)O)NC(=O)[C@H](Cc2ccc(O)cc2)NC(=O)[C@H](CC(N)=O)NC(=O)CSC[C@@H](C(=O)N[C@@H](CCC(=O)O)C(N)=O)NC(=O)[C@H]([C@@H](C)O)NC(=O)[C@H](C(C)C)NC1=O [Compound 1172] ({CH2CO}-NYDWV[Bip]R[NMeA][dL][Dab]LVTCE-NH2; thioether N-14),0.29
10,Cc1cccc(C[C@@H]2NC(=O)[C@H](CC(=O)O)NC(=O)[C@H](Cc3ccc(OCC(=O)O)cc3)NC(=O)[C@H]([C@@H](C)O)NC(=O)CSC[C@@H](C(N)=O)NC(=O)[C@H](CCC(=O)O)NC(=O)[C@H](C(C)C)NC(=O)[C@H](CC3CCCCC3)NC(=O)[C@H](CCN)NC(=O)[C@@H](CC(C)C)NC(=O)[C@H](C)N(C)C(=O)[C@H](Cc3ccc(OCC(=O)O)cc3)NC(=O)[C@H](Cc3ccc(-c4ccccc4)cc3)NC(=O)[C@H](Cc3ccc(OCC(=O)O)cc3)NC2=O)c1 [Compound 1673] ({CH2CO}-TY(Carboxymethyl)D[Phe(3-Me)]Y(Carboxymethyl)[Bip]Y(Carboxymethyl)[NMeA][dL][Dab][Cha]VEC-NH2; thioether N-14),0.09
11,CC(C)C[C@@H]1NC(=O)[C@H](Cc2c[nH]c3ccccc23)NC(=O)[C@H](CC(=O)O)NC(=O)[C@H](Cc2ccc(O)cc2)NC(=O)[C@H](Cc2ccccc2)NC(=O)CSC[C@@H](C(=O)N[C@@H](C)C(N)=O)NC(=O)[C@H](CO)NC(=O)[C@H](C(C)C)NC(=O)[C@H](CC(C)C)NC(=O)[C@H](CC(N)=O)NC(=O)[C@@H](C(C)C)NC(=O)[C@H](C)N(C)C(=O)[C@H](C(C)C)NC(=O)[C@H](Cc2ccc(-c3ccccc3)cc2)NC1=O [Compound 1771] ({CH2CO}-FYDWL[Bip]V[NMeA][dV]NLVSCA-NH2; thioether N-14),0.04
12,CCC(C)[C@@H]1NC(=O)[C@H](Cc2ccc(-c3ccccc3)cc2)NC(=O)[C@H](CC2CCCCC2)NC(=O)[C@H](Cc2c[nH]c3ccccc23)NC(=O)[C@H](CC(=O)O)NC(=O)[C@H](Cc2ccc(OCC(=O)O)cc2)NC(=O)[C@H](C(C)O)NC(=O)CSC[C@@H](C(=O)N[C@@H](CC(N)=O)C(=O)O)NC(=O)[C@H](CO)NC(=O)[C@H](C(C)C)NC(=O)[C@H](CC(C)C)NC(=O)[C@H](CCN)NC(=O)[C@@H](CC(C)C)NC(=O)[C@H](C)N(C)C1=O (stereo partly drawn) [Compound 2223] ({CH2CO}-[Thr(3ξ)]Y(Carboxymethyl)DW[Cha][Bip][Ile(3ξ)][NMeA][dL][Dab]LVSCN-OH; thioether N-14),0.04
13,CC(C)C[C@@H]1NC(=O)[C@H](CCN)NC(=O)[C@@H](CC(C)C)NC(=O)[C@H](C)N(C)C(=O)[C@H](C(C)C)NC(=O)[C@H](Cc2ccc(-c3ccccc3)cc2)NC(=O)[C@H](C(C)C)NC(=O)[C@H](Cc2c[nH]c3ccccc23)NC(=O)[C@H](CC(=O)O)NC(=O)[C@H](Cc2ccc(OCC(=O)O)cc2)NC(=O)[C@H](CN)NC(=O)CSC[C@@H](C(=O)N[C@@H](C)C(N)=O)NC(=O)[C@H]([C@@H](C)O)NC(=O)[C@H](C(C)C)NC1=O [Compound 1447] ({CH2CO}-[Dap]Y(Carboxymethyl)DWV[Bip]V[NMeA][dL][Dab]LVTCA-NH2; thioether N-14),0.03
14,CC(C)C[C@@H]1NC(=O)[C@H](CCN)NC(=O)[C@@H](CC(C)C)NC(=O)[C@H](C)N(C)C(=O)[C@H](CCCNC(=N)N)NC(=O)[C@H](Cc2ccc(-c3ccccc3)cc2)NC(=O)[C@H](C(C)C)NC(=O)[C@H](Cc2c[nH]c3ccccc23)NC(=O)[C@H](CC(=O)O)NC(=O)[C@H](Cc2cccc(OCC(=O)O)c2)NC(=O)[C@H](CC(N)=O)NC(=O)CSC[C@@H](C(=O)N[C@@H](C)C(N)=O)NC(=O)[C@H]([C@@H](C)O)NC(=O)[C@H](C(C)C)NC1=O [Compound 1372] ({CH2CO}-N[Phe(3-OCH2COOH)]DWV[Bip]R[NMeA][dL][Dab]LVTCA-NH2; thioether N-14),0.14
15,CC(C)C[C@@H]1NC(=O)[C@H](Cc2c[nH]c3ccccc23)NC(=O)[C@H](CC(=O)O)NC(=O)[C@H](Cc2ccc(C(=O)O)cc2)NC(=O)[C@H](Cc2ccc(OCC(=O)O)cc2)NC(=O)CSC[C@@H](C(=O)N[C@@H](C)C(N)=O)NC(=O)[C@H](CO)NC(=O)[C@H](C(C)C)NC(=O)[C@H](CC(C)C)NC(=O)[C@H](CC(N)=O)NC(=O)[C@@H](C)NC(=O)[C@H](C)N(C)C(=O)[C@H](C(C)C)NC(=O)[C@H](Cc2ccc(-c3ccccc3)cc2)NC1=O [Compound 1560] ({CH2CO}-Y(Carboxymethyl)[Phe(4-COOH)]DWL[Bip]V[NMeA][dA]NLVSCA-NH2; thioether N-14),0.02
